# Measured values: paper PMC9376960, “Ruthenium(II)–Tris-pyrazolylmethane Complexes Inhibit Cancer Cell Growth by Disrupting Mitochondrial Calcium Homeostasis” (Journal of Medicinal Chemistry, 2022)
# Assays:
# [1] = set-up: method as in doi:10.1021/acs.organomet.9b00813; settings: UV-Vis measurements; cited from earlier work
# MRC5pd30 = assay: MTT assay on noncancerous cells; type: cell-based, human; settings: 72 h, mean ± SD
# Experimental: (§1) All of the cell lines were cultivated in DMEM medium (high glucose 4.5 g L^–1, PAA, Pasching, Austria) supplemented with gentamycin (50 μg mL^–1, Serva, Heidelberg, Germany) and 10% heat-inactivated fetal bovine serum (PAA). The medium for MRC5pd30 cells was further supplemented by 1% nonessential amino acids (Sigma-Aldrich, Prague, Czech Republic). All cells were cultured as adherent monolayers in a humidified incubator at 37 °C in a 5% CO2 atmosphere and subcultured twice a week with an appropriate plating density.
# (§2) In vitro antiproliferative activity of Ru complexes was determined by the MTT or, alternatively, SRB assay as already described,[84] after 72 h of incubation of cells with various concentrations of the Ru complex. The reported IC50 values are an average of three independent experiments, each consisting of three replicates per concentration.
# [2] = Solubility in water (D2O) by 1H NMR; type: physicochemical; settings: D2O, 21°C; sum of chloro and aquo complex after 2 h; 1H NMR, Me2SO2 standard
# Experimental: A suspension of the selected ruthenium complex (3–5 mg) in a D2O solution (0.7 mL) containing Me2SO2 as the internal standard[115] (3.36 × 10^–3 M) was vigorously stirred at 21 °C for 2 h. The resulting saturated solution was filtered over celite, transferred into an NMR tube, and analyzed by ^1H NMR and ^31P NMR spectroscopy (delay time = 3 s; number of scans = 20). The concentration (solubility) was calculated by the relative integral (starting complex + aquo complex, C^βH signal in the ^1H spectrum) with respect to Me2SO2 (δ/ppm = 3.14). NMR data are given in the Supporting Information (Figures S36–S47).
# RD = assay: MTT antiproliferative assay; type: cell-based, human; settings: 72 h, mean ± SD
# Experimental: as §1, with “density. In vitro antiproliferative activity of Ru complexes was determined by the MTT or, alternatively, SRB assay as already described,[84] after 72 h of incubation of cells with various concentrations of the Ru complex. The reported IC50 values are an average of three independent experiments, each consisting of three replicates per concentration.” for “density.”
# [3] = Octanol/water partition coefficient, shake-flask, UV-vis; type: physicochemical
# Experimental: Partition coefficients (Pow); IUPAC: […] A stock solution of the selected ruthenium compound (ca. 2 mg) was prepared by first adding MeOH (50 μL, to help solubilization), followed by octanol-saturated water (2.5 mL). The solution was diluted with octanol-saturated water (ca. 1:3 v/v ratio, cRu ≈ 10^-4 M, so that 1.5 ≤ A ≤ 2.0 at λmax), and its UV-vis spectrum was recorded (Aaq^0). An aliquot of the solution (Vaq = 1.2 mL) was transferred into a test tube, and water-saturated octanol (Vorg = Vaq = 1.2 mL) was added. […] The UV-vis spectrum of the aqueous phase was recorded (Aaq^f), and the partition coefficient was calculated as Pow = ([…], where […] are the absorbances in the aqueous phase before and after partition with the organic phase, respectively.[118] For 1, an inverse procedure was followed, starting from a solution of the compound in water-saturated octanol. The partition coefficient was calculated as Pow = Aorg^f/(Aorg^0 - Aorg^f), where Aorg^0 and Aorg^f are the absorbances in the organic phase before and after partition with the aqueous phase, respectively. The wavelength of the maximum absorption of each compound (280-380 nm range) was used for UV-vis quantitation. The procedure was repeated three times for each sample (from the same stock solution); the results are given as mean ± standard deviation (Table 2).
# [4] = Stability and chloride/water exchange in D2O (NMR); type: physicochemical; settings: for Aquo species % in D2O after 48h: 48 h at 37 °C; for residual complex % in D2O: after 48 h at 37 °C, sum of chloro and aquo complexes; for Aquo species % in D2O at t0: t0 = after 2 h stirring in D2O
# Experimental: The same samples prepared at point (a) were used in this experiment, apart from complex 1 that was dissolved in DMSO-d6/D2O 4:1 v/v solution (0.7 mL; [Ru] = approx. […]) containing Me2SO2 as the standard.[115] After ^1H and ^31P{^1H} NMR analyses described above at point (a) (time = t0), samples were heated at 37 °C for 48 h. After cooling to room temperature, ^1H and ^31P NMR spectra were recorded. The percentage of starting complex + related aquo complex was calculated by the relative integral (C^βH signal in the ^1H spectrum) with respect to Me2SO2 (c = 3.3 × 10^–3 mol·L^–1; δ/ppm = 3.14 in D2O; δ/ppm = 2.95 in DMSO-d6/D2O 4:1 v/v), see Table 2 and S1.
# [5] = system: cancer cell lines (MCF-7, HeLa, 518A2, HCT116, RD) vs noncancerous MRC-5pd30; assay: MTT panel: average IC50 of cancer cell lines and selectivity index; type: cell-based, human; settings: for SI (selectivity index): IC50 for noncancerous MRC-5pd30 vs the average IC50 value of cancer cell lines; for IC50: average of IC50 values related to cancer cell lines
# Experimental: as §2
# [6] = Stability and speciation in deuterated cell culture medium (DMEM-d/DMSO-d6, NMR); type: physicochemical; settings: for Aquo species % in DMEM-d/DMSO-d6 after 24h: 37 °C; for residual complex % in DMEM-d/DMSO-d6: after 24 h at 37 °C, sum of chloro and aquo complexes
# Experimental: Powdered DMEM cell culture medium (1000 mg/L glucose and L-glutamine, without sodium bicarbonate and phenol red; D2902; Sigma-Aldrich) was dissolved in D2O (10 mg/mL), according to the manufacturer’s instructions. The solution of deuterated cell culture medium (“DMEM-d”) was treated with Me2SO2 (6.6 × 10^–3 M) and NaH2PO4/Na2HPO4 (0.10 M, pD = 7.5)[120]−[122] and then stored at 4 °C under N2. The selected ruthenium compound (2–3 mg) was dissolved in DMSO-d6 (0.14 mL; 0.18 mL for 4) and then diluted with DMEM-d up to 0.75 mL total volume (cRu ca. 4 × 10^–3 M). The mixture was stirred for 30 min, then filtered over celite, and transferred into an NMR tube. The resulting yellow solution was analyzed by ^1H and ^31P NMR (delay time = 3 s; number of scans = 20) and then heated at 37 °C for 24 h. After cooling to room temperature, NMR analyses were repeated. Compound 1 was instead dissolved in a DMSO-d6/DMEM-d 4:1 v/v solution (0.7 mL; [Ru] = approx. 3 × 10^–3 M) containing Me2SO2 as the internal standard.[115] The percentage of the starting complex + related aquo complex was calculated by the relative integral with respect to Me2SO2 (δ/ppm = 3.16 in DMSO-d6/DMEM-d 1:4 and 1:3 v/v; δ/ppm = 2.95 in DMSO-d6/DMEM-d 4:1 v/v).
# HCT116 [7] = assay: SRB antiproliferative assay; type: cell-based, human; settings: SRB test, 72 h; mean ± SD
# Experimental: as §2
# HCT116 cells = assay: Cellular uptake of Ru (ICP-MS); type: cell-based, human; settings: HCT116, 15 μM, 24 h; mean ± SEM
# Experimental: In these experiments, 1 × 10^6 HCT116 cells were seeded on 100 mm Petri dishes. After overnight preincubation in a drug-free medium, the cells were treated with the Ru complexes (15 μM) for 24 h. Afterward, the cells were extensively washed with PBS (37 °C), detached using 0.25% trypsin, washed twice with ice-cold PBS, and counted by an automatic cell counter. The cell pellets were digested using a microwave acid (HCl) digestion system (CEM Mars). The quantity of Ru taken up by the cells was determined by inductively coupled plasma mass spectrometry (ICP-MS). All experiments were carried out in triplicate.
# MCF-7 = assay: MTT antiproliferative assay; type: cell-based, human; settings: 72 h, mean ± SD
# Experimental: as §1, §2
# 518A2 = assay: MTT antiproliferative assay; type: cell-based, human; settings: 72 h, mean ± SD
# Experimental: as §1, §2
# HeLa = assay: MTT antiproliferative assay; type: cell-based, human; settings: 72 h, mean ± SD
# Experimental: as §1, §2
# HCT116 [8] = assay: MTT antiproliferative assay; type: cell-based, human; settings: 72 h, mean ± SD
# Experimental: as §1, §2
solubility [2],log Pow [3],Aquo species % in D2O after 48h [4],residual complex % in D2O [4],Aquo species % in D2O at t0 [4],Aquo species % in DMEM-d/DMSO-d6 at t0 ([6]; DMSO-d6-DMEM-d 1:4 v/v),Aquo species % in DMEM-d/DMSO-d6 after 24h ([6]; DMSO-d6-DMEM-d 1:4 v/v),residual complex % in DMEM-d/DMSO-d6 ([6]; DMSO-d6/DMEM-d 1:4 v/v),IC50 (HCT116 [7]),"Accumulation of ruthenium, ng Ru/10^6 cells (HCT116 cells)",IC50 (MCF-7),IC50 (HeLa),IC50 (HCT116 [8]),Substance,IC50 (MRC5pd30),IC50 (RD),SI (selectivity index) [5],IC50 [5],IC50 (518A2),also measured
2.4 10^–3 mol·L^–1,0.58 ± 0.06,70%,100%,67%,,,,21 ± 3 µM,54.9 ± 1.3 ng Ru/10^6 cells,37 ± 7 µM,36 ± 1 µM,25 ± 2 µM,[RuCl(κ^3-tpm)(PPh3){NCHNHC(CH)4C}]Cl [compound 4],56.6 ± 0.7 µM,25 ± 3 µM,1.8,31.6 ± 3.4 µM,35 ± 4 µM,Aquo species % in DMEM-d/DMSO-d6 at t0 ([6]; DMSO-d6-DMEM-d 1:3 v/v): 0%; Aquo species % in DMEM-d/DMSO-d6 after 24h ([6]; DMSO-d6-DMEM-d 1:3 v/v): 59%; residual complex % in DMEM-d/DMSO-d6 ([6]; DMSO-d6/DMEM-d 1:3 v/v): 93%
3.4 10^–3 mol·L^–1,–0.05 ± 0.05,88%,100%,25%,0%,50%,98%,20 ± 3 µM,58.4 ± 3.0 ng Ru/10^6 cells,32 ± 5 µM,54 ± 6 µM,30 ± 2 µM,[RuCl(κ^3-tpm)(PPh3){NNH(CH)3}]Cl [compound 5],63 ± 4 µM,23 ± 2 µM,1.9,34 ± 3.6 µM,31 ± 3 µM,

# Second part, the substance before the results:
Substance,solubility [2],log Pow [3],Aquo species % in D2O after 48h [4],residual complex % in D2O [4],Aquo species % in D2O at t0 [4],Aquo species % in DMEM-d/DMSO-d6 at t0 ([6]; DMSO-d6-DMEM-d 1:4 v/v),Aquo species % in DMEM-d/DMSO-d6 after 24h ([6]; DMSO-d6-DMEM-d 1:4 v/v),residual complex % in DMEM-d/DMSO-d6 ([6]; DMSO-d6/DMEM-d 1:4 v/v),IC50 (HCT116 [7]),"Accumulation of ruthenium, ng Ru/10^6 cells (HCT116 cells)",IC50 (MCF-7),IC50 (HeLa),IC50 (HCT116 [8]),IC50 (MRC5pd30),IC50 (RD),SI (selectivity index) [5],IC50 [5],IC50 (518A2),also measured
[Fe2Cp2(CO)(μ-CO){μ-η^1:η^3-C(3-C6H4OH)CHCNMe2}]CF3SO3 [[FeFe]^+[CF3SO3]^–],,,,,,,,,,,,,,,,,,,LogPow [1]: −0.34
[RuCl(κ^3-tpm)(PPh3)(NCMe)]Cl [compound 2],4.5 10^–3 mol·L^–1,–0.33 ± 0.07,92%,89%,80%,0%,59%,51%,16 ± 1 µM,29.6 ± 2.9 ng Ru/10^6 cells,32 ± 4 µM,53 ± 4 µM,25 ± 2 µM,76 ± 1 µM,26 ± 5 µM,2.4,32.4 ± 3.8 µM,26 ± 4 µM,
[RuCl(κ^3-tpm)(PPh3){N(CH)3C(OH)CH}]Cl [compound 6],1.9 10^–3 mol·L^–1,,99%,100%,15%,9%,70%,100%,20 ± 2 µM,27.2 ± 1.1 ng Ru/10^6 cells,46 ± 7 µM,54 ± 14 µM,31 ± 2 µM,82 ± 4 µM,38 ± 6 µM,2.0,41.4 ± 7.4 µM,38 ± 8 µM,
